Experimental data from the kinase profiling compilation of Christmann-Franck et al. (2016).
Several values for one entry are separate records, joined by “and”; a condition that tells them apart may be missing. Equal entries are not always repeated.

Columns and labels:
Assay in all cases: Caliper, Mobility shift assay off-chip
NEK9 (human) = NEK9 (human) (UniProt Q8TD19)
PHKG1 (human) = PHKG1 (human) (UniProt Q16816)
SIK1 (human) = SIK1 (human) (UniProt P57059)
CDK6 (human) = CDK6 (human) (UniProt Q00534)
Sequence of CDK6 (human) (Q00534 whole entry, looked up): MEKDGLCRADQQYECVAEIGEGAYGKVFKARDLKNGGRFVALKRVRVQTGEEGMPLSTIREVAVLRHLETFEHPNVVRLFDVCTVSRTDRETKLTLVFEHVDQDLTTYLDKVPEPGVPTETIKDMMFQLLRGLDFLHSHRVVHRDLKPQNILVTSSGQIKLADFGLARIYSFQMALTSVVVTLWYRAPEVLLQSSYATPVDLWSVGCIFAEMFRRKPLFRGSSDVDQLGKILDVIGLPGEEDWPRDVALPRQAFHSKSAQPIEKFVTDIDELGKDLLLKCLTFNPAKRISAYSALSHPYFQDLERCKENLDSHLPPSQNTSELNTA

EPHA1 (human) = EPHA1 (human) (UniProt P21709)
PRKCD (human) = PRKCD (human) (UniProt Q05655)
Sequence of PRKCD (human) (Q05655 whole entry, looked up): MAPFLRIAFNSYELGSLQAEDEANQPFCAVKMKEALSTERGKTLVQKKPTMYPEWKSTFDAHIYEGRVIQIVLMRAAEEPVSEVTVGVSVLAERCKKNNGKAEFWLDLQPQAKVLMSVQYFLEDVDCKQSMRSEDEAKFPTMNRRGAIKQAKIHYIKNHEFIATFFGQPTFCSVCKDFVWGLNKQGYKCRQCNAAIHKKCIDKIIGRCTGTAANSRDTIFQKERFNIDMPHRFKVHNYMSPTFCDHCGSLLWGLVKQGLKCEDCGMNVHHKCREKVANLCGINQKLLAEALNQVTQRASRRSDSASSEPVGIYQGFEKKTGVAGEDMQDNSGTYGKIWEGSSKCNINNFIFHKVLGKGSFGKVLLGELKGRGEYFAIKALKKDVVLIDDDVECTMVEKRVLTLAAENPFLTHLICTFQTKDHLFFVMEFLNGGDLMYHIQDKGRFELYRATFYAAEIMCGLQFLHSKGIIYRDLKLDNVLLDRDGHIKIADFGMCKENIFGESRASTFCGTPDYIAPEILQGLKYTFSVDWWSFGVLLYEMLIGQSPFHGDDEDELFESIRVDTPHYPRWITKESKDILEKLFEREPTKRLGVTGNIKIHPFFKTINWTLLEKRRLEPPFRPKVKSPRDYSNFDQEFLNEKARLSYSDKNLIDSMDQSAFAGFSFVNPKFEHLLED

PRKD2 (human) = PRKD2 (human) (UniProt Q9BZL6)
DAPK1 (human) = DAPK1 (human) (UniProt P53355)
EPHB4 (human) = EPHB4 (human) (UniProt P54760)
FES (human) = FES (human) (UniProt P07332)
GSG2 (human) = GSG2 (human) (UniProt Q8TF76)
NTRK2 (human) = NTRK2 (human) (UniProt Q16620); settings: compound 0.02 µM
TYRO3 (human) = TYRO3 (human) (UniProt Q06418)
TSSK2 (human) = TSSK2 (human) (UniProt Q96PF2)
NTRK3 (human) = NTRK3 (human) (UniProt Q16288)
PGK1 (human) = PGK1 (human) (UniProt P00558)
FER (human) = FER (human) (UniProt P16591)
Sequence of FER (human) (P16591 whole entry, looked up): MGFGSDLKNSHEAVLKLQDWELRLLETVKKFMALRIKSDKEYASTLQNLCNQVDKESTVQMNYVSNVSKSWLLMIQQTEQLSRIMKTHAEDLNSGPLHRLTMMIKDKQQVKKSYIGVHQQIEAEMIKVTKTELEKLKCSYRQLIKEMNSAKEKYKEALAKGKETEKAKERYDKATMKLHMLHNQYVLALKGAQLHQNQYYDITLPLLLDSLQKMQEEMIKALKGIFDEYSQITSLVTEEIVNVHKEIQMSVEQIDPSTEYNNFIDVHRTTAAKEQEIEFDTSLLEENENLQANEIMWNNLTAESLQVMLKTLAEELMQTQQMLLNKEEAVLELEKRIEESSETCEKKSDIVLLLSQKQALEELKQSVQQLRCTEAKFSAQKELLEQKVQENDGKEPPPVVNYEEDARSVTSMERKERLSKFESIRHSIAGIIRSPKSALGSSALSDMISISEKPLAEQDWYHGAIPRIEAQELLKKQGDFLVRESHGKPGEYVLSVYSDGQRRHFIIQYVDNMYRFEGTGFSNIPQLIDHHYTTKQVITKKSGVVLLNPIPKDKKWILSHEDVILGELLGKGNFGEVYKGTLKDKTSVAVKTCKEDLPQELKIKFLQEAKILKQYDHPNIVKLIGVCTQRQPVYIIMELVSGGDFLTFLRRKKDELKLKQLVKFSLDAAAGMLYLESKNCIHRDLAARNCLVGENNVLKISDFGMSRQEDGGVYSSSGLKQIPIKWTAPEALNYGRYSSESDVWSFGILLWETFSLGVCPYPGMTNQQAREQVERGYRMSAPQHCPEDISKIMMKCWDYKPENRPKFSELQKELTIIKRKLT

BRSK2 (human) = BRSK2 (human) (UniProt Q8IWQ3)
Sequence of BRSK2 (human) (Q8IWQ3 whole entry, looked up): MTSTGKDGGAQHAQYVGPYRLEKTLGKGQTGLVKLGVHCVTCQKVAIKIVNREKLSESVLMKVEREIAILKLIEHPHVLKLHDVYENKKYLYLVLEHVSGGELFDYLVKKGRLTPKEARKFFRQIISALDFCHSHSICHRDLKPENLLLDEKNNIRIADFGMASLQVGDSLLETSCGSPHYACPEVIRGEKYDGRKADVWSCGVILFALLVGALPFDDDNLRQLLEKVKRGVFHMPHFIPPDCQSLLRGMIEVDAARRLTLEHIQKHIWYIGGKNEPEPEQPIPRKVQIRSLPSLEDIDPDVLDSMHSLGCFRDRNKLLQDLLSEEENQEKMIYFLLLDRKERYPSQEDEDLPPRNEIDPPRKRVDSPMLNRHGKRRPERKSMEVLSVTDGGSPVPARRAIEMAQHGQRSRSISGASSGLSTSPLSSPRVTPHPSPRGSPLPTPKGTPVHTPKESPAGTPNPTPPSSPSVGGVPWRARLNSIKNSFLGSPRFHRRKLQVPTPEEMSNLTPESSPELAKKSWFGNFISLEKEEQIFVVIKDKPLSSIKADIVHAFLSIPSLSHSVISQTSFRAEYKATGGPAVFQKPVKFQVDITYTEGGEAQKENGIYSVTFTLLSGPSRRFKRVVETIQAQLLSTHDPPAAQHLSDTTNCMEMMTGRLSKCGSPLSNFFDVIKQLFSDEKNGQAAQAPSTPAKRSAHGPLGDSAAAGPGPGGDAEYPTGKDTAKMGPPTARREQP

PTK2B (human) = PTK2B (human) (UniProt Q14289)
PRKAA2 (human) = PRKAA2 (human) (UniProt P54646)
INSRR (human) = INSRR (human) (UniProt P14616)
NTRK1 (human) = NTRK1 (human) (UniProt P04629)
Sequence of NTRK1 (human) (P04629 whole entry, looked up): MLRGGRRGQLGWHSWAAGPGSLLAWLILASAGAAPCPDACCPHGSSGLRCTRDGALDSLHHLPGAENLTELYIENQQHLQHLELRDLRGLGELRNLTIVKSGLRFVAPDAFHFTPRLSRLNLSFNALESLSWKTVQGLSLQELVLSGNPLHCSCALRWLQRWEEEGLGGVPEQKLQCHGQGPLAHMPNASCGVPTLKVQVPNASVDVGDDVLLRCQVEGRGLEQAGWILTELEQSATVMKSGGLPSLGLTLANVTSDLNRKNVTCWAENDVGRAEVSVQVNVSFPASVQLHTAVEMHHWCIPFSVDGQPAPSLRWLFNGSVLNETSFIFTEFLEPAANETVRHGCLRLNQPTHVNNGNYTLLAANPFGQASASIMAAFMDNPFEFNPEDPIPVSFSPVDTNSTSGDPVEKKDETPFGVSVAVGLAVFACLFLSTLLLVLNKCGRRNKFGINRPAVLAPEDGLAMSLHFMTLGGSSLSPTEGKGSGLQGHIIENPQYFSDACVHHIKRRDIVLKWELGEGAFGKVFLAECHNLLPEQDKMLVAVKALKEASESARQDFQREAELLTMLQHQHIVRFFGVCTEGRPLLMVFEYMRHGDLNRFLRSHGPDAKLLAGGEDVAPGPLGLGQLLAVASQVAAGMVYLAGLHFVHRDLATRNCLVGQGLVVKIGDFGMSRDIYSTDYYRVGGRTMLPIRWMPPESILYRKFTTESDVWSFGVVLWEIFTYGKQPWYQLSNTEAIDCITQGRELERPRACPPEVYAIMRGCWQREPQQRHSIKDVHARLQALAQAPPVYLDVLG

CSNK1G1 (human) = CSNK1G1 (human) (UniProt Q9HCP0)
CDK2 (human) = CDK2 (human) (UniProt P24941)
AURKB (human) = AURKB (human) (UniProt Q96GD4)
Sequence of AURKB (human) (Q96GD4 whole entry, looked up): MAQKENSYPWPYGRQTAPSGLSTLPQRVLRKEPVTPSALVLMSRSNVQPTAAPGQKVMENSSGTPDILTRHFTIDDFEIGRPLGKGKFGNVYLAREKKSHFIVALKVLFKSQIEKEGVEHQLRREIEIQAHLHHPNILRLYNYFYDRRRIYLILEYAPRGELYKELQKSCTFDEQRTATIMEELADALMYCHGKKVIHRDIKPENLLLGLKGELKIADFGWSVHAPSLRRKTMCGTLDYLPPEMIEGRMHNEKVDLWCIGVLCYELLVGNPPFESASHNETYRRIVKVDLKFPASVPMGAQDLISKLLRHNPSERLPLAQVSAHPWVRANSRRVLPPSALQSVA

FGFR4 (human) = FGFR4 (human) (UniProt P22455)
PASK (human) = PASK (human) (UniProt Q96RG2)
MAPK14 (human) = MAPK14 (human) (UniProt Q16539)
PRKCI (human) = PRKCI (human) (UniProt P41743)
ZAP70 (human) = ZAP70 (human) (UniProt P43403)
CDK4 (human) = CDK4 (human) (UniProt P11802)
EPHA7 (human) = EPHA7 (human) (UniProt Q15375)
CSK (human) = CSK (human) (UniProt P41240)
RPS6KA1 KD1 KD2 (human) = RPS6KA1 KD1 KD2 (human) (UniProt Q15418)

Sequence of SIK1 (human) (P57059 whole entry, looked up): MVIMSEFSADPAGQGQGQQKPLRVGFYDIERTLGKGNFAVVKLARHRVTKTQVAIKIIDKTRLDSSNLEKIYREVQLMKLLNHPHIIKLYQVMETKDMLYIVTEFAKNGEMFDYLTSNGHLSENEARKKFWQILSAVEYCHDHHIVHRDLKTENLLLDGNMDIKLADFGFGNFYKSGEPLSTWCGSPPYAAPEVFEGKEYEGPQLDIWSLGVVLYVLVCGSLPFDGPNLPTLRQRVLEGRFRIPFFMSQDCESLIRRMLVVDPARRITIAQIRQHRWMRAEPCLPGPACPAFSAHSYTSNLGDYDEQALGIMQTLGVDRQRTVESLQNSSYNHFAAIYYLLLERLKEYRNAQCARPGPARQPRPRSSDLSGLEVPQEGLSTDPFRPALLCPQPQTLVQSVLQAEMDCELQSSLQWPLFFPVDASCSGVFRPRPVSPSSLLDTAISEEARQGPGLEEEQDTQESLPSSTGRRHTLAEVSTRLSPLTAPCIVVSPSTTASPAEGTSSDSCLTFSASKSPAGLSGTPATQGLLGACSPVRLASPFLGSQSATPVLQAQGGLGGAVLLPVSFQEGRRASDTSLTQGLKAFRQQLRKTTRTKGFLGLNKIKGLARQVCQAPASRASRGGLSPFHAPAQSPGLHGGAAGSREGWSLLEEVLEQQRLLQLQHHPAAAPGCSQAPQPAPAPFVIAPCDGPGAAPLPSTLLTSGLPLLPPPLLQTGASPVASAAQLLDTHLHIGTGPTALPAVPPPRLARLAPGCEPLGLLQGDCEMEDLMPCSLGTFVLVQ
Sequence of PHKG1 (human) (Q16816 whole entry, looked up): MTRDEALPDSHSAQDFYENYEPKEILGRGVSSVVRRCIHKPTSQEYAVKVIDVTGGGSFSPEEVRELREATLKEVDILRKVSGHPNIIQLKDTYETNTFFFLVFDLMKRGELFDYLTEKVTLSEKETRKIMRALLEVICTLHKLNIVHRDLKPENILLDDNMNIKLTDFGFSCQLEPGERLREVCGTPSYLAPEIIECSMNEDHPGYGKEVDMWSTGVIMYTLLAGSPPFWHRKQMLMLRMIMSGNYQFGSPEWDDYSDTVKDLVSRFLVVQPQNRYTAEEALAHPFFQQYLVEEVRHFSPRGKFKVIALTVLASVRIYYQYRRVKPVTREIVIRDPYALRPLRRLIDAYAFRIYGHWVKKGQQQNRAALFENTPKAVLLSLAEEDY

## COc1cc2c(Oc3ccc4[nH]c(C)cc4c3F)ncnc2cc1OCCCN1CCCC1
NEK9 (human); compound 0.02 µM
  inhibition: -3.3%
NEK9 (human); compound 0.2 µM
  inhibition: -2.9%
PHKG1 (human); compound 0.02 µM
  inhibition: -5.1%
PHKG1 (human); compound 0.2 µM
  inhibition: -3.5%
SIK1 (human); compound 0.02 µM
  inhibition: -3.3%
SIK1 (human); compound 0.2 µM
  inhibition: -0.4%
CDK6 (human); compound 0.02 µM
  inhibition: 11.4%
CDK6 (human); compound 0.2 µM
  inhibition: 4.1%
EPHA1 (human); compound 0.02 µM
  inhibition: -0.2%
EPHA1 (human); compound 0.2 µM
  inhibition: 6.5%
PRKCD (human); compound 0.02 µM
  inhibition: 11.1%
PRKCD (human); compound 0.2 µM
  inhibition: -2.2%
PRKD2 (human); compound 0.02 µM
  inhibition: -0.3%
PRKD2 (human); compound 0.2 µM
  inhibition: -1.5%
DAPK1 (human); compound 0.02 µM
  inhibition: -5.9%
DAPK1 (human); compound 0.2 µM
  inhibition: 7.4%
EPHB4 (human); compound 0.02 µM
  inhibition: -0.5%
EPHB4 (human); compound 0.2 µM
  inhibition: 23.3%
FES (human); compound 0.02 µM
  inhibition: 6.9%
FES (human); compound 0.2 µM
  inhibition: 7.8%
GSG2 (human); compound 0.02 µM
  inhibition: 0.4%
GSG2 (human); compound 0.2 µM
  inhibition: -0.4%
NTRK2 (human)
  inhibition: 8.3%
TYRO3 (human); compound 0.02 µM
  inhibition: 7.9%
TYRO3 (human); compound 0.2 µM
  inhibition: 40.5%
TSSK2 (human); compound 0.02 µM
  inhibition: -4.1%
TSSK2 (human); compound 0.2 µM
  inhibition: -3.4%
NTRK3 (human); compound 0.02 µM
  inhibition: 1.6%
NTRK3 (human); compound 0.2 µM
  inhibition: 1.8%
PGK1 (human); compound 0.02 µM
  inhibition: -1.4%
PGK1 (human); compound 0.2 µM
  inhibition: -6.5%
FER (human); compound 0.02 µM
  inhibition: 8.7%
FER (human); compound 0.2 µM
  inhibition: 11.2%
BRSK2 (human); compound 0.02 µM
  inhibition: -2.3%
BRSK2 (human); compound 0.2 µM
  inhibition: 2.8%
PTK2B (human); compound 0.02 µM
  inhibition: -1.9%
PTK2B (human); compound 0.2 µM
  inhibition: -5.4%
PRKAA2 (human); compound 0.02 µM
  inhibition: 5.1%
PRKAA2 (human); compound 0.2 µM
  inhibition: 6%
INSRR (human); compound 0.02 µM
  inhibition: -0.3%
INSRR (human); compound 0.2 µM
  inhibition: 13.3%
NTRK1 (human); compound 0.02 µM
  inhibition: 3.4%
NTRK1 (human); compound 0.2 µM
  inhibition: 3.9%
CSNK1G1 (human); compound 0.02 µM
  inhibition: -2%
CSNK1G1 (human); compound 0.2 µM
  inhibition: -0.6%
CDK2 (human); compound 0.02 µM
  inhibition: 1% and -0.2%
CDK2 (human); compound 0.2 µM
  inhibition: -3% and -3.9%
AURKB (human); compound 0.02 µM
  inhibition: 4.5%
AURKB (human); compound 0.2 µM
  inhibition: 8.3%
FGFR4 (human); compound 0.02 µM
  inhibition: 3.2%
FGFR4 (human); compound 0.2 µM
  inhibition: 22.3%
PASK (human); compound 0.02 µM
  inhibition: -4.3%
PASK (human); compound 0.2 µM
  inhibition: 0.3%
MAPK14 (human); compound 0.02 µM
  inhibition: -4.9%
MAPK14 (human); compound 0.2 µM
  inhibition: -4.9%
PRKCI (human); compound 0.02 µM
  inhibition: 4.3%
PRKCI (human); compound 0.2 µM
  inhibition: 6%
ZAP70 (human); compound 0.02 µM
  inhibition: 3.1%
ZAP70 (human); compound 0.2 µM
  inhibition: 3.4%
CDK4 (human); compound 0.02 µM
  inhibition: 2.7%
CDK4 (human); compound 0.2 µM
  inhibition: 7.2%
EPHA7 (human); compound 0.02 µM
  inhibition: -2.4%
EPHA7 (human); compound 0.2 µM
  inhibition: 23.5%
CSK (human); compound 0.02 µM
  inhibition: -6.7%
CSK (human); compound 0.2 µM
  inhibition: -6.3%
RPS6KA1 KD1 KD2 (human); compound 0.02 µM
  inhibition: -3.4%
RPS6KA1 KD1 KD2 (human); compound 0.2 µM
  inhibition: -3.3%
